Measurements as given in patent US11161819B2, “Substituted tetrahydroisoquinoline compounds useful as GPR120 agonists” (Merck Sharp & Dohme Corp., priority 2016, dated 2021).

Target: T1, human GPR120 (Homo sapiens, UniProt Q5NUL3)
T1 construct: expressed in transfected cells
T1 sequence (Q5NUL3 1-361): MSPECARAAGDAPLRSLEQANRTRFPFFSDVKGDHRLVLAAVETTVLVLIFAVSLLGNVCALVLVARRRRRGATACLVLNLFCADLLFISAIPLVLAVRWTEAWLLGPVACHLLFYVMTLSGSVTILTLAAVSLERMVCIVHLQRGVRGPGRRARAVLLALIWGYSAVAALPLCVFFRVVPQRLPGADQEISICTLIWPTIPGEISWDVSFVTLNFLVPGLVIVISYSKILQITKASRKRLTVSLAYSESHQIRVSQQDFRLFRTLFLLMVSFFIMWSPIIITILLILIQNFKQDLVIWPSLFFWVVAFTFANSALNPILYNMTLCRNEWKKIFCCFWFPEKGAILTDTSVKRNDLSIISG
Assay: Human GPR120 IP1 Assay (inositol phosphate turnover, CisBio IP-One kit)
Type: cell-based
Details: IP1 accumulation in CHO-K1 cells stably expressing the short form of human GPR120; 60 min compound incubation; 4-parameter fit; read-out: hGPR120 EC50
Source text: Human GPR120 IP1 Assay Principle
The binding of small molecule agonists to the G-protein-coupled receptor GPR120 activates phospholipase C, and leads to the generation of inositol 1,4,5-trisphosphate (InsP3 or IP3). IP3 is subsequently de-phosphorylated to IP1, which accumulates in cells and is stable in the presence of lithium chloride.
In the present method, agonist-induced activation of the human GPR120 receptor was monitored by measuring the accumulation of IP1 in CHO-K1 cells that were stably expressing the short form of human GPR120 (Accession #NM_001195755). Following agonist addition, GPR120 activation and subsequent accumulation of IP1 was measured using a homogeneous Time Resolved Fluorescence-based ELISA commercially available from CisBio (IP-one ELISA Kit). The IP-One ELISA was a competitive immunoassay which uses IP1 labeled with […] and a terbium cryptate-labeled anti-IP1 monoclonal antibody. […] The signal loss was then back calculated to IP1 concentration using an IP1 standard curve. Determination of IP1 concentration was a direct measure of GPR120 activation and was used to determine compound potency (EC50).
Generation of GPR120-Expressing Cells:
Human GPR120 stable cell-lines were generated in CHO cells. The expression plasmids were transfected using lipofectamine (Life Technologies) following manufacturer's instructions. Stable cell-lines were generated following drug selection and single cell cloning.
Inositol Phosphate Turnover (IP1) Assay:
The assay was performed in 384-well format. CHO cells stably expressing human GPR120 were plated at […] per well in growth medium (DMEM/F12, 10% fetal calf serum). Cell plates were then incubated 16 hours at 37 degrees in a 5% CO2 incubator. Measurement of Inositol Phosphate Turnover (IP1) was performed using the CisBio IP-One kit (Part number 62IPAPEB). After the 16 hour incubation, the growth media was removed by centrifugation using the BlueWasher (AusWasher GUI Ver. v1.0.1.8) Protocol #21-“Light Dry” and 10 ul of stimulation buffer (prepared as described in the kit) was added to each well. In a separate plate, compounds were diluted in DMSO (200-fold over the final concentration in the assay well) and 50 nl was acoustically transferred to the appropriate well in the assay cell plate. The plates were then incubated for 60 minutes at 37 degrees in a 5% CO2 incubator. 10 ul of detection buffer (also prepared as described in the IP-One kit) was added to each well and the plates were incubated at room temperature for 60 minutes in the dark. The plates were then read in a Perkin Elmer EnVision or equivalent reader able to measure FRET. Fluorescent ratio of emission at 665 and 620 nm was then converted to the IP1 concentration by back calculating from an IP1 standard curve prepared at the time of the assay. The data was normalized to % activity using a reference compound, and the EC50 values were determined using a standard 4-parameter fit.

## 3-{2-[2-cyano-5-(cyclobutyloxy) phenyl]-1,2,3,4-tetrahydroiso- quinolin-6-yl}propanoic acid [Example 46]
  EC50: 5390 nM

## CC(CC(=O)O)c1ccc2c(c1)CCN(c1cc(OC(F)(F)F)ccc1F)C2 (single isomer, unassigned) [Example 8, 3-(2-(2-fluoro-5-(trifluoromethoxy)phenyl)-1,2,3,4-tetrahydro-isoquinolin-6-yl)-butanoic acid]
  EC50: 414 nM

## CC(Cc1ccc2c(c1F)CCN(c1cc(OC(F)(F)F)cc(Cl)c1F)C2)C(=O)O (single isomer, unassigned) [Example 68, 3-{2-[3-chloro-2-fluoro-5-(trifluoromethoxy)phenyl]-5-fluoro-1,2,3,4-tetrahydroisoquinolin-6-yl}-2-methyl-propanoic acid]
  EC50: 58 nM

## CC(Cc1ccc2c(c1F)CCN(c1cc(OC(F)(F)F)cc(Cl)c1F)C2)C(=O)O (single isomer, unassigned) [Example 69, 3-{2-[3-chloro-2-fluoro-5-(trifluoromethoxy)phenyl]-5-fluoro-1,2,3,4-tetrahydroisoquinolin-6-yl}-2-methyl-propanoic acid]
  EC50: 231 nM

## Cc1ccc(-n2nc(C)c(C#N)c2N2CCc3cc(C(C)CCCC(=O)O)ccc3C2)cc1 (single isomer, unassigned) [Example 140, 5-{2-[4-cyano-3-methyl-1-(4-methylphenyl)-1H-pyrazol-5-yl]-1,2,3,4-tetrahydroisoquinolin-6-yl} hexanoic acid]
  EC50: 209 nM

## Cc1ccc(-n2nc(C)c(C#N)c2N2CCc3cc(C(C)CCCC(=O)O)ccc3C2)cc1 (single isomer, unassigned) [Example 142, 5-{2-[4-cyano-3-methyl-1-(4-methylphenyl)-1H-pyrazol-5-yl]-1,2,3,4-tetra-hydroisoquinolin-6-yl}hexanoic acid]
  EC50: 312 nM

## O=C(O)CCc1ccc2c(c1)CCN(c1cc(Oc3ccccn3)cc(C(F)F)c1F)C2 [Example 2, 3-(2-(3-(difluoromethyl)-2-fluoro-5-(pyridin-2-yloxy)phenyl)-1,2,3,4-tetrahydro-isoquinolin-6-yl)propanoic acid]
  EC50: 17 nM

## O=C(O)CCc1ccc2c(c1)CCN(c1nc(OC3CCC3)ccc1F)C2 [Example 5, 3-(2-(6-cyclobutoxy-3-fluoropyridin-2-yl)-1,2,3,4-tetrahydro-isoquinolin-6-yl)-propanoic acid]
  EC50: 65 nM

## CC1c2ccc(CCC(=O)O)cc2CCN1c1cc(OC2CCC2)ccc1F (stereo not drawn) [Example 6, 3-(2-(5-cyclobutoxy-2-fluorophenyl)-1-methyl-1,2,3,4-tetrahydroisoquinolin-6-yl)-propanoic acid]
  EC50: 417 nM

## CC(CC(=O)O)c1ccc2c(c1)CCN(c1cc(OC(F)(F)F)ccc1F)C2 (stereo not drawn) [Example 7, 3-(2-(2-fluoro-5-(trifluoromethoxy)phenyl)-1,2,3,4-tetrahydroisoquinolin-6-yl)butanoic acid]
  EC50: 533 nM

## Cc1cnc(Oc2cc(Cl)c(F)c(N3CCc4cc(CCC(=O)O)ccc4C3)c2)s1 [Example 9]
  EC50: 20 nM

## O=C(O)CCc1ccc2c(c1)CCN(c1cc(OC3CCC3)cc(C(F)F)c1F)C2 [Example 10, 3-{2-[5-(cyclobutyloxy)-3-(difluoromethyl)-2-fluorophenyl]-1,2-3,4-tetrahydroisoquinolin-6-yl}-propanoic acid]
  EC50: 14 nM

## O=C(O)CCc1ccc2c(c1)CCN(c1cc(OC3CCC3)cc(F)c1F)C2 [Example 11, 3-{2-[5-(cyclobutyloxy)-2,3-difluorophenyl]-1,2,3,4-tetrahydro-isoquinolin-6-yl}propanoic acid]
  EC50: 15 nM

## N#Cc1cc(OC2CCC2)cc(N2CCc3cc(CCC(=O)O)ccc3C2)c1F [Example 12, 3-{2-[3-cyano-5-(cyclobutyloxy)-2-fluorophenyl]-1,2,3,4-tetra-hydroisoquinolin-6-yl}propanoic acid]
  EC50: 24 nM

## COc1cc(OC(F)(F)F)cc(N2CCc3cc(CCC(=O)O)ccc3C2)c1F [Example 13, 3-{2-[2-fluoro-3-methoxy-5-(trifluoromethoxy)phenyl]-1,2,3,4-tetrahydroisoquinolin-6-yl}-propanoic acid]
  EC50: 18 nM

## Cc1cnc(Oc2cc(C(F)F)c(F)c(N3CCc4cc(CCC(=O)O)ccc4C3)c2)s1 [Example 14, 3-(2-{3-(difluoromethyl)-2-fluoro-5-[(5-methyl-1,3-thiazol-2-yl)oxy]phenyl}-1,2,3,4-tetrahydro-isoquinolin-6-yl)propanoic acid]
  EC50: 20 nM

## O=C(O)CCc1ccc2c(c1)CCN(c1cc(OC(F)(F)F)cc(Cl)c1F)C2 [Example 15, 3-{2-[3-chloro-2-fluoro-5-(trifluoromethoxy)phenyl]-1,2,3,4-tetrahydroisoquinolin-6-yl}-propanoic acid]
  EC50: 22 nM

## Cc1ccc(Oc2cc(C(F)F)c(F)c(N3CCc4cc(CCC(=O)O)ccc4C3)c2)nc1 [Example 16, 3-(2-{3-(difluoromethyl)-2-fluoro-5-[(5-methylpyridin-2-yl)oxy]phenyl}-1,2,3,4-tetrahydroiso-quinolin-6-yl)propanoic acid]
  EC50: 22 nM

## COc1cc(Oc2ncc(C)s2)cc(N2CCc3cc(CCC(=O)O)ccc3C2)c1F [Example 17, 3-(2-{2-fluoro-3-methoxy-5-[(5-methyl-1,3-thiazol-2-yl)oxy]phenyl}-1,2,3,4-tetrahydroiso-quinolin-6-yl)propanoic acid]
  EC50: 23 nM

## COc1cc(OC2CCC2)cc(N2CCc3cc(CCC(=O)O)ccc3C2)c1F [Example 18, 3-{2-[5-(cyclobutyloxy)-2-fluoro-3-methoxyphenyl]-1,2,3,4-tetra-hydroisoquinolin-6-yl}propanoic acid]
  EC50: 24 nM

## O=C(O)CCc1ccc2c(c1)CCN(c1cc(OC3CCC3)ccc1F)C2 [Example 19, 3-{2-[5-(cyclobutyloxy)-2-fluorophenyl]-1,2,3,4-tetrahydroiso-quinolin-6-yl}propanoic acid]
  EC50: 27 nM

## CO[C@H]1C[C@H](Oc2cc(F)c(F)c(N3CCc4cc(CCC(=O)O)ccc4C3)c2)C1 [Example 20, 3-(2-{2,3-difluoro-5-[(trans-3-methoxycyclobutyl)oxy]phenyl}-1,2,3,4-tetrahydroisoquinolin-6-yl)propanoic acid]
  EC50: 29 nM

## COc1cc(F)c(N2CCc3cc(CCC(=O)O)ccc3C2)cc1Oc1ncc(C)s1 [Example 21, 3-(2-{2-fluoro-4-methoxy-5-[(5-methyl-1,3-thiazol-2-yl)oxy]phenyl}-1,2,3,4-tetrahydroiso-quinolin-6-yl)propanoic acid]
  EC50: 51 nM

## Cc1ccc(-n2nc(C)c(Cl)c2N2CCc3cc(CCC(=O)O)ccc3C2)cc1 [Example 22, 3-{2-[4-chloro-3-methyl-1-(4-methylphenyl)-1H-pyrazol-5-yl]-1,2,3,4-tetrahydroisoquinolin-6-yl} propanoic acid]
  EC50: 56 nM

## O=C(O)CCc1ccc2c(c1F)CCN(c1cc(CC3CCC3)ccc1F)C2 [Example 23, 3-{2-[5-(cyclobutylmethyl)-2-fluorophenyl]-5-fluoro-1,2,3,4-tetrahydroisoquinolin-6-yl}propanoic acid]
  EC50: 60 nM

## COc1cc(Cl)c(N2CCc3cc(CCC(=O)O)ccc3C2)cc1OC1CCC1 [Example 24, 3-{2-[2-chloro-5-(cyclobutyloxy)-4-methoxyphenyl]-1,2,3,4-tetrahydroisoquinolin-6-yl}propanoic acid]
  EC50: 61 nM

## O=C(O)CCc1ccc2c(c1)CCN(c1cc(SC3CCC3)ncc1F)C2 [Example 26, 3-{2-[2-(cyclobutylsulfanyl)-5-fluoropyridin-4-yl]-1,2,3,4-tetrahydro-isoquinolin-6-yl}propanoic acid]
  EC50: 97 nM
